# What was measured:
# Type in all cases: functional
# Staphylococcus aureus [1] = assay: Antibacterial activity against Staphylococcus aureus NCTC 8325 assessed as bacterial growth inhibition incubated over night by two-fold serial dilution method
# Klebsiella pneumoniae = assay: Antibacterial activity against Klebsiella pneumoniae ATCC 12657 assessed as bacterial growth inhibition incubated over night by two-fold serial dilution method
# Acinetobacter baumannii = assay: Antibacterial activity against Acinetobacter baumannii 09987 assessed as bacterial growth inhibition incubated over night by two-fold serial dilution method
# Klebsiella aerogenes = assay: Antibacterial activity against Enterobacter aerogenes ATCC 13048 assessed as bacterial growth inhibition incubated over night by two-fold serial dilution method
# Candida albicans = assay: Antifungal activity against Candida albicans Tu01 assessed as fungal growth inhibition incubated for 48 hrs by broth microdilution method
# HeLa = assay: Cytotoxicity against human HeLa cells assessed as reduction in cell viability after 24 hrs by resazurin dye based assay
# Bacillus subtilis = assay: Antibacterial activity against Bacillus subtilis 168 assessed as bacterial growth inhibition incubated over night by two-fold serial dilution method
# Nakaseomyces glabratus = assay: Antifungal activity against Candida glabrata Tu04 assessed as fungal growth inhibition incubated for 48 hrs by broth microdilution method
# Pseudomonas aeruginosa = assay: Antibacterial activity against Pseudomonas aeruginosa ATCC 27853 assessed as bacterial growth inhibition incubated over night by two-fold serial dilution method
# Staphylococcus aureus [2] = assay: Antibacterial activity against Staphylococcus aureus ATCC 29213 assessed as bacterial growth inhibition incubated over night by two-fold serial dilution method
# [3] = tested on: Mycolicibacterium smegmatis; assay: Antibacterial activity against Mycobacterium smegmatis mc2 155 assessed as bacterial growth inhibition incubated over night by two-fold serial dilution method
# Enterococcus faecium = assay: Antibacterial activity against Enterococcus faecium BM4147-1 assessed as bacterial growth inhibition incubated over night by two-fold serial dilution method
# Escherichia coli [4] = assay: Antibacterial activity against Escherichia coli ATCC 25922 assessed as bacterial growth inhibition incubated over night by two-fold serial dilution method
# Escherichia coli [5] = assay: Antimicrobial activity against Escherichia coli MRE600 assessed as inhibition of translation using luciferin as substrate incubated for 2 hrs by chemiluminescence based cell free assay; conditions: MRE600, 2 h
# [6] = tested on: Mycobacterium tuberculosis; assay: Antitubercular activity against Mycobacterium tuberculosis H37Rv ATCC 25618 assessed as bacterial growth inhibition incubated for 7 days by resazurin microtiter assay; conditions: H37Rv ATCC 25618, 168 h, time 7 day
Structure (SMILES),MIC (Staphylococcus aureus [1]),MIC (Klebsiella pneumoniae),MIC (Acinetobacter baumannii),MIC (Klebsiella aerogenes),MIC (Candida albicans),IC50 (HeLa),MIC (Bacillus subtilis),MIC (Nakaseomyces glabratus),MIC (Pseudomonas aeruginosa),MIC (Staphylococcus aureus [2]),MIC [3],MIC (Enterococcus faecium),MIC (Escherichia coli [4]),IC50 (Escherichia coli [5]),MIC95 [6]
CC(C)CC(=O)Nc1ccn([C@H]2CC[C@H](O)[C@@H](C)O2)c(=O)n1,> 32 µg/mL,> 32 µg/mL,> 32 µg/mL,> 32 µg/mL,> 32 µg/mL,> 64 µg/mL,> 32 µg/mL,> 32 µg/mL,> 32 µg/mL,> 32 µg/mL,> 32 µg/mL,> 32 µg/mL,> 32 µg/mL,,
CC(C)=CC(=O)Nc1ccn([C@H]2CC[C@H](O)[C@@H](C)O2)c(=O)n1,> 32 µg/mL,> 32 µg/mL,> 32 µg/mL,> 32 µg/mL,> 32 µg/mL,> 64 µg/mL,> 32 µg/mL,> 32 µg/mL,> 32 µg/mL,> 32 µg/mL,> 32 µg/mL,> 32 µg/mL,> 32 µg/mL,,
C[C@H]1O[C@H](O[C@H]2CC[C@H](n3ccc(NC(=O)c4ccc(N)cc4)nc3=O)O[C@@H]2C)[C@H](O)[C@@H](O)[C@@H]1N(C)C,> 32 µg/mL,> 32 µg/mL,> 32 µg/mL,> 32 µg/mL,> 32 µg/mL,16 µg/mL,32 µg/mL,> 32 µg/mL,> 32 µg/mL,> 32 µg/mL,2 µg/mL,> 32 µg/mL,> 32 µg/mL,12 µg/mL,16 µM
CC(=O)C(C)Nc1ccc(C(=O)Nc2ccn([C@H]3CC[C@H](O[C@H]4O[C@H](C)[C@@H](N(C)C)[C@H](O)[C@H]4O)[C@@H](C)O3)c(=O)n2)cc1 (stereo not given in full),> 32 µg/mL,> 32 µg/mL,> 32 µg/mL,> 32 µg/mL,> 32 µg/mL,16 µg/mL,> 32 µg/mL,> 32 µg/mL,> 32 µg/mL,> 32 µg/mL,2 µg/mL,> 32 µg/mL,> 32 µg/mL,13 µg/mL,32 µM
CC(C)=CC(=O)Nc1ccn([C@H]2CC[C@H](O[C@H]3O[C@H](C)[C@@H](N(C)C)[C@H](O)[C@H]3O)[C@@H](C)O2)c(=O)n1,> 32 µg/mL,> 32 µg/mL,> 32 µg/mL,> 32 µg/mL,> 32 µg/mL,2 µg/mL,32 µg/mL,> 32 µg/mL,> 32 µg/mL,> 32 µg/mL,4 µg/mL,> 32 µg/mL,> 32 µg/mL,1.6 µg/mL,32 µM
CC[C@H](C)C(=O)Nc1ccn([C@H]2CC[C@H](O)[C@@H](C)O2)c(=O)n1,> 32 µg/mL,> 32 µg/mL,> 32 µg/mL,> 32 µg/mL,> 32 µg/mL,> 64 µg/mL,> 32 µg/mL,> 32 µg/mL,> 32 µg/mL,> 32 µg/mL,> 32 µg/mL,> 32 µg/mL,> 32 µg/mL,,
C[C@H]1O[C@H](O[C@H]2CC[C@H](n3ccc(NC(=O)c4ccc(N)c(F)c4)nc3=O)O[C@@H]2C)[C@H](O)[C@@H](O)[C@@H]1N(C)C,> 32 µg/mL,> 32 µg/mL,> 32 µg/mL,> 32 µg/mL,> 32 µg/mL,> 64 µg/mL,> 32 µg/mL,> 32 µg/mL,> 32 µg/mL,> 32 µg/mL,,> 32 µg/mL,> 32 µg/mL,,
CS/C=C/C(=O)Nc1ccn([C@H]2CC[C@H](O[C@H]3O[C@H](C)[C@@H](N(C)C)[C@H](O)[C@H]3O)[C@@H](C)O2)c(=O)n1,16 µg/mL,> 32 µg/mL,> 32 µg/mL,> 32 µg/mL,> 32 µg/mL,1 µg/mL,8 µg/mL,> 32 µg/mL,> 32 µg/mL,16 µg/mL,4 µg/mL,> 32 µg/mL,> 32 µg/mL,1 µg/mL,8 µM
CC[C@H](C)CCC(=O)Nc1ccn([C@H]2CC[C@H](O[C@H]3O[C@H](C)[C@@H](N(C)C)[C@H](O)[C@H]3O)[C@@H](C)O2)c(=O)n1,> 32 µg/mL,> 32 µg/mL,> 32 µg/mL,> 32 µg/mL,> 32 µg/mL,> 64 µg/mL,> 32 µg/mL,> 32 µg/mL,> 32 µg/mL,> 32 µg/mL,16 µg/mL,> 32 µg/mL,> 32 µg/mL,9.5 µg/mL,

# — ChEMBL document CHEMBL5131500, “High Plasticity of the Amicetin Biosynthetic Pathway in Streptomyces sp. SHP 22-7 Led to the Discovery of Streptcytosine P and Cytosaminomycins F and G and Facilitated the Production of 12F-Plicacetin” (J Nat Prod, 2022)
